Data as given in publication PMC6384738, “Structure-Function Studies of Polymyxin B Lipononapeptides” (Molecules, 2019).
≈ marks a conversion by molar mass, not a printed value. Where a SMILES comes first, the peptide text is derived from it. Bridges are numbered along the chain shown (N, C = ends). [ ]: non-standard residue; d: D form. The star is where a group is joined. Decanoyl(3R-OH) = CCCCCCC[C@@H](O)CC(=O)*; Butanoyl(4-OPh) = O=C(CCCOc1ccccc1)*; Cit = NC(=O)NCCC[C@H](N)C(=O)O; Octanoyl = CCCCCCCC(=O)*; Dab = NCC[C@H](N)C(=O)O

What was measured:
S. aureus ATCC 25923 = test: microbe, parasite or virus in culture; conditions: ATCC 25923, 18 h
Procedure: (§1) All compounds synthesised in this study were assessed for their minimum inhibitory concentrations (MIC, mg/L) by broth microdilution assay against five antibiotic-sensitive and resistant ATCC reference strains covering the Gram-negative ESKAPE pathogens (Escherichia coli, Klebsiella pneumoniae, A. baumannii, and P. aeruginosa) (Table 1, Table 2 and Table 3). Staphylococcus aureus was also included as a representative Gram-positive bacterial strain. […] Polymyxin B 1, colistin 2, vancomycin and gentamicin were used as positive inhibitor comparator compounds. Compounds were counter-screened against human proximal tubular epithelial cells (HK-2), using LDH release as a general indicator of cellular toxicity.

A. baumannii ATCC 19606 = test: microbe, parasite or virus in culture; conditions: ATCC 19606, 18 h
Procedure: as §1

K. pneumoniae ATCC 13833 = test: microbe, parasite or virus in culture; conditions: ATCC 13833, 18 h
Procedure: as §1

P. aeruginosa ATTC 27853 = test: microbe, parasite or virus in culture; conditions: ATTC 27853, 18 h
Procedure: as §1

E. coli ATCC 25922 = test: microbe, parasite or virus in culture; conditions: ATCC 25922, 18 h
Procedure: as §1

K. pneumoniae BAA 2146 = test: microbe, parasite or virus in culture; conditions: BAA 2146, 18 h
Procedure: as §1

[1] = tested on: K. pneumoniae ATCC 700603; test: microbe, parasite or virus in culture; conditions: ATCC 700603, 18 h
Procedure: as §1

in vitro = conditions: human
Procedure: as §1
Cytotoxicity to human kidney proximal tubular epithelial cell line, HK-2 (ATCC CRL-2190, sourced from ATCC; Manassas, VA, USA) was determined using the LDH assay as previously described. In brief, HK-2 cells were seeded as 2000 cells/well in black-walled clear bottom 384-well tissue culture treated plates (Corning, catalogue No. 3712) in DMEM/F12 medium (Gibco® 10565-042) containing 10% of Fetal Bovine Serum (FBS, Gibco® 10099-141) and incubated for 24 h at 37 °C, 5% CO2. Compounds were then added into each well with a concentration series from 300 µM to 2.3 µM in 2-fold dilutions. Colistin and polymyxin B were used as controls and tested at a final concentration range of 1 mM to 7.8 µM. The cells were incubated with the compounds for 24 h at 37 °C, 5% CO2. After the incubation, 5 µL of culture medium was added to 45 µL of LDH assay buffer (Biovision, K313-500) and incubated for 30 min at room temperature. The absorbance (ABS) was then read at 450 nm using a Polar Star Omega plate reader. The data was analysed by Prism 6 software (GraphPad Software, La Jolla, CA, USA). Results were calculated using the following equation: cytotoxicity %= (ABSsamples − ABSuntreated/ABS1%Triton X-100 − ABSuntreated) × 100.

| Compound | MIC S. aureus ATCC 25923 (S. aureus ATCC 25923) [µg/mL] | MIC A. baumannii ATCC 19606 (A. baumannii ATCC 19606) [µg/mL] | MIC K. pneumoniae ATCC 13833 (K. pneumoniae ATCC 13833) [µg/mL] | MIC P. aeruginosa ATTC 27853 (P. aeruginosa ATTC 27853) [µg/mL] | MIC E. coli ATCC 25922 (E. coli ATCC 25922) [µg/mL] | MIC K. pneumoniae BAA 2146 (K. pneumoniae BAA 2146) [µg/mL] | MIC K. pneumoniae ATCC 700603 [1] [µg/mL] | CC50 at 24 h (in vitro) [µM] |
| --- | --- | --- | --- | --- | --- | --- | --- | --- |
| CCCCCCCC(=O)N[C@H](C(=O)N[C@H](CCCCN)C(=O)N[C@H]1CCNC(=O)[C@H]([C@@H](C)O)NC(=O)[C@H](CCN)NC(=O)[C@H](CCN)NC(=O)[C@H](CC(C)C)NC(=O)[C@@H](Cc2ccccc2)NC(=O)[C@H](CCN)NC1=O)[C@@H](C)O [Compound 43] (Octanoyl-T[dK][Dab][Dab][dF]L[Dab][Dab]T; lactam 3-C) | >32 | 16 (≈ 14.3 µM) | >32 | 4 (≈ 3.58 µM) | 1 (≈ 0.895 µM) | 4 (≈ 3.58 µM) | 4 (≈ 3.58 µM) | > 300 |
| CCCCCCCC(=O)N[C@H](C(=O)N[C@@H](CCCNC(N)=O)C(=O)N[C@H]1CCNC(=O)[C@H]([C@@H](C)O)NC(=O)[C@H](CCN)NC(=O)[C@H](CCN)NC(=O)[C@H](CC(C)C)NC(=O)[C@@H](Cc2ccccc2)NC(=O)[C@H](CCN)NC1=O)[C@@H](C)O [Compound 44] (Octanoyl-T[Cit][Dab][Dab][dF]L[Dab][Dab]T; lactam 3-C) | >32 | >32 | >32 | >32 | 32 (≈ 27.9 µM) | 32 (≈ 27.9 µM) | >32 | > 300 |
| CCCCCCCC(=O)N[C@H](C(=O)N[C@@H](CCCNC(=N)N)C(=O)N[C@H]1CCNC(=O)[C@H]([C@@H](C)O)NC(=O)[C@H](CCN)NC(=O)[C@H](CCN)NC(=O)[C@H](CC(C)C)NC(=O)[C@@H](Cc2ccccc2)NC(=O)[C@H](CCN)NC1=O)[C@@H](C)O [Compound 45] (Octanoyl-TR[Dab][Dab][dF]L[Dab][Dab]T; lactam 3-C) | >32 | 32 (≈ 27.9 µM) | >32 | 4 (≈ 3.49 µM) | 2 (≈ 1.75 µM) | 16 (≈ 14 µM) | 8 (≈ 6.98 µM) | > 300 |
| CCCCCCCC(=O)N[C@H](C(=O)N[C@@H](Cc1c[nH]c2ccccc12)C(=O)N[C@H]1CCNC(=O)[C@H]([C@@H](C)O)NC(=O)[C@H](CCN)NC(=O)[C@H](CCN)NC(=O)[C@H](CC(C)C)NC(=O)[C@@H](Cc2ccccc2)NC(=O)[C@H](CCN)NC1=O)[C@@H](C)O [Compound 46] (Octanoyl-TW[Dab][Dab][dF]L[Dab][Dab]T; lactam 3-C) | >32 | >32 | >32 | >32 | >32 | >32 | 32 (≈ 27.2 µM) | > 300 |
| CCCCCCCC(=O)N[C@H](C(=O)N[C@@H](Cc1c[nH]cn1)C(=O)N[C@H]1CCNC(=O)[C@H]([C@@H](C)O)NC(=O)[C@H](CCN)NC(=O)[C@H](CCN)NC(=O)[C@H](CC(C)C)NC(=O)[C@@H](Cc2ccccc2)NC(=O)[C@H](CCN)NC1=O)[C@@H](C)O [Compound 47] (Octanoyl-TH[Dab][Dab][dF]L[Dab][Dab]T; lactam 3-C) | >32 | >32 | >32 | 16 (≈ 14.2 µM) | 4 (≈ 3.55 µM) | 16 (≈ 14.2 µM) | 32 (≈ 28.4 µM) | > 300 |
| CCCCCCCC(=O)N[C@H](C(=O)N[C@H](Cc1c[nH]cn1)C(=O)N[C@H]1CCNC(=O)[C@H]([C@@H](C)O)NC(=O)[C@H](CCN)NC(=O)[C@H](CCN)NC(=O)[C@H](CC(C)C)NC(=O)[C@@H](Cc2ccccc2)NC(=O)[C@H](CCN)NC1=O)[C@@H](C)O [Compound 48] (Octanoyl-T[dH][Dab][Dab][dF]L[Dab][Dab]T; lactam 3-C) | >32 | 4 (≈ 3.55 µM) | 4 (≈ 3.55 µM) | 16 (≈ 14.2 µM) | 2 (≈ 1.78 µM) | 4 (≈ 3.55 µM) | 4 (≈ 3.55 µM) | > 300 |
| CCCCCCCC(=O)N[C@H](C(=O)NCC(=O)N[C@H]1CCNC(=O)[C@H]([C@@H](C)O)NC(=O)[C@H](CCN)NC(=O)[C@H](CCN)NC(=O)[C@H](CC(C)C)NC(=O)[C@@H](Cc2ccccc2)NC(=O)[C@H](CCN)NC1=O)[C@@H](C)O [Compound 49] (Octanoyl-TG[Dab][Dab][dF]L[Dab][Dab]T; lactam 3-C) | >32 | >32 | >32 | >32 | 4 (≈ 3.82 µM) | >32 | >32 | 163 |
| CC(C)C[C@@H]1NC(=O)[C@@H](Cc2ccccc2)NC(=O)[C@H](CCN)NC(=O)[C@@H](NC(=O)CNC(=O)[C@@H](NC(=O)CCCOc2ccccc2)[C@@H](C)O)CCNC(=O)[C@H]([C@@H](C)O)NC(=O)[C@H](CCN)NC(=O)[C@H](CCN)NC1=O [Compound 51] ({Butanoyl(4-OPh)}-TG[Dab][Dab][dF]L[Dab][Dab]T; lactam 3-C) | >32 | 16 (≈ 14.8 µM) | >32 | 8 (≈ 7.39 µM) | 2 (≈ 1.85 µM) | 4 (≈ 3.7 µM) | 16 (≈ 14.8 µM) | > 300 |
| CCCCCCC[C@@H](O)CC(=O)N[C@H](C(=O)NCC(=O)N[C@H]1CCNC(=O)[C@H]([C@@H](C)O)NC(=O)[C@H](CCN)NC(=O)[C@H](CCN)NC(=O)[C@H](CC(C)C)NC(=O)[C@@H](Cc2ccccc2)NC(=O)[C@H](CCN)NC1=O)[C@@H](C)O [Compound 52] ({Decanoyl(3R-OH)}-TG[Dab][Dab][dF]L[Dab][Dab]T; lactam 3-C) | >32 | 32 (≈ 29.3 µM) | >32 | 4 (≈ 3.67 µM) | 1 (≈ 0.917 µM) | 4 (≈ 3.67 µM) | 4 (≈ 3.67 µM) | > 300 |
